According to paper PMC6695355, “Alanine Scanning Studies of the Antimicrobial Peptide Aurein 1.2” (Probiotics and Antimicrobial Proteins, 2018):
≈ marks a conversion by molar mass, not a printed value. Read-outs that look alike come from different tables or passages of the source. Where a SMILES comes first, the peptide text is derived from it.

Tests used:
[1] = tested on: S. aureus ATCC 25923 biofilm formation; format: cell-based, Staphylococcus aureus; details: ATCC 25923, 24 h
Method: (§1) The minimum inhibitory concentrations (MICs) of test compounds were assessed by broth microdilution method on 96-well plates, according to the guidelines of Clinical and Laboratory Standards Institute (CLSI). For this purpose, reference strains of bacteria: S. aureus ATCC 25923, E. faecalis PCM 2673, E. coli ATCC 25922, and P. aeruginosa ATCC 9027; and fungus: C. albicans ATCC 10231 were used (The Polish Collection of Microorganism, Polish Academy of Sciences, Wrocław, Poland). Bacteria at initial inoculums of 0.5 × 10^5 CFU/mL in Mueller Hinton Broth (MHB), and fungi at initial inoculums of 2 × 10^3 CFU/mL in RPMI-1640, were exposed to the compounds over the concentration range of 1–512 μg/mL. The polystyrene plates were incubated at 37 °C for 18 h with bacteria and for 24 h with C. albicans. The MIC was taken as the lowest concentration at which a noticeable growth of microorganisms was inhibited. Minimum biofilm eradication concentrations (MBECs) were determined using a previously described protocol. For this purpose, 96-well polystyrene flat-bottom plates and a resazurin (7-hydroxy-3H-phenoxazin-3-one 10-oxide) were used. In this assay, a specific feature of resazurin is utilized, which upon the contact with living cells is metabolized and reduced from the basic blue form to pink resorufin. Briefly, 24-h cultures of microorganisms were diluted 1,000-fold and 100 μL of that suspension was added into the test plates. After 24 h of incubation at 37 °C, the wells of the plates were rinsed three times with phosphate buffer saline (PBS) to remove non-adherent cells. Subsequently, 100 μL of test compounds in concentration range (diluted in appropriate media) were added to each well. After 24 h of incubation at 37 °C, 20 μL of the resazurin (4 mg/mL) was added. The MBEC was read after 1 h. Additionally, anti-adhesive properties of the compounds were also analyzed. The assay was conducted on 96-well polystyrene flat-bottom plates. The preparation of inoculums was followed by a 500-fold dilution of 24-h cultures of microorganisms. Briefly, to evaluate the effect of the peptides in preventing biofilm formation, 50 μL of compounds in concentration range, diluted in appropriate medium, were prepared. Subsequently, the 50 μL of the bacterial/fungal inoculums were added to reach the same microbial density as that in MBEC assay. After 24 h of incubation at 37 °C, the wells were rinsed three times with PBS and the fresh media with resazurin (0.6 mg/mL) were added. Then, after 1 h of incubation, the minimum biofilm inhibitory concentrations (MBIC) were read. MBECs as well as MBICs were determined as the lowest concentration at which the reduction of resazurin was lower or equal (10% ± 0.5%) as compared to positive (100%) and negative (0%) controls. All experiments were performed in triplicate.

[2] = tested on: S. aureus ATCC 25923 biofilm; format: cell-based, Staphylococcus aureus; details: ATCC 25923, 24 h
Method: as §1

[3] = tested on: S. aureus ATCC 25923; format: cell-based, Staphylococcus aureus; details: ATCC 25923, 18 h
Method: as §1

[4] = tested on: E. faecalis PCM 2673 biofilm formation; format: cell-based, Enterococcus faecalis; details: 24 h
Method: as §1

[5] = tested on: E. faecalis PCM 2673 biofilm; format: cell-based, Enterococcus faecalis; details: 24 h
Method: as §1

[6] = tested on: E. faecalis PCM 2673; format: cell-based, Enterococcus faecalis; details: PCM 2673, 18 h
Method: as §1

[7] = tested on: E. coli ATCC 25922 biofilm formation; format: cell-based, Escherichia coli; details: ATCC 25922, 24 h
Method: as §1

[8] = tested on: E. coli ATCC 25922 biofilm; format: cell-based, Escherichia coli; details: ATCC 25922, 24 h
Method: as §1

[9] = tested on: E. coli ATCC 25922; format: cell-based, Escherichia coli; details: ATCC 25922, 18 h
Method: as §1

[10] = tested on: P. aeruginosa ATCC 9027 biofilm formation; format: cell-based, Pseudomonas aeruginosa; details: ATCC 9027, 24 h
Method: as §1

[11] = tested on: P. aeruginosa ATCC 9027 biofilm; format: cell-based, Pseudomonas aeruginosa; details: ATCC 9027, 24 h
Method: as §1

[12] = tested on: P. aeruginosa ATCC 9027; format: cell-based, Pseudomonas aeruginosa; details: ATCC 9027, 18 h
Method: as §1

[13] = tested on: C. albicans ATCC 10231 biofilm formation; format: cell-based, Candida albicans; details: ATCC 10231, 24 h
Method: as §1

[14] = tested on: C. albicans ATCC 10231 biofilm; format: cell-based, Candida albicans; details: ATCC 10231, 24 h
Method: as §1

[15] = tested on: C. albicans ATCC 10231; format: cell-based, Candida albicans; details: ATCC 10231, 24 h
Method: as §1

[16] = tested on: human red blood cells (RBCs); experiment: Hemolysis assay; format: cell-based
Method: The hemolytic activity of the peptides was determined using fresh human red blood cells (RBCs) collected from a healthy human donor according to the procedure described in the literature. Fresh RBCs with EDTA as anticoagulant were rinsed three times with a PBS by centrifugation at 800×g for 10 min and resuspension in PBS. Serial dilution of the peptides in PBS (1–256 μg/mL) on 96-well polystyrene plates was prepared and the stock solution of RBCs was added up to a final volume of 100 μL with a 4% concentration of erythrocytes (v/v). The control wells for 0 and 100% hemolysis contained of RBCs suspended in PBS and 1% of Triton-X 100, respectively. Subsequently, the plates were incubated for 1 h at 37 °C and then centrifuged at 800×g for 10 min at 4 °C (Sorvall ST 16R Centrifuge, Thermo Scientific). After centrifugation, the supernatant was carefully […] to new microtiter plates and the release of hemoglobin was measured at 540 nm (Multiskan™ GO Microplate Spectrophotometer, Thermo Scientific). All experiments were conducted in triplicate.

[17] = in vitro; format: in vitro ADME; details: bovine, serum
Method: To assess serum stability, the peptides (0.5 mg) were dissolved in 4 mL of 25% (v/v) fetal bovine serum (FBS) in PBS and incubated at 37 °C. The aliquots of 100 μL of the test samples were transferred to 96-well polystyrene plates in triplicate for each time point. Samples were quenched at zero time (t0) and after 6 h of incubation at 37 °C by addition of 100 μL of ice-cold acetonitrile and stored at 4 °C for 10 min. Afterwards, the samples were centrifuged at 13,000×g for 20 min at 4 °C and diluted 1:1 with HPLC-grade water. All samples were analyzed using the Waters Alliance e2695 system with Waters Acquity QDa Detector (software–Empower®3). Analyses were conducted on an Agilent Zorbax SB-C18 RP-18 column (4.6 × 50 mm, 1.8-μm particle size, 80-Å pore size) using a linear 30–60% acetonitrile (B) gradient in deionized water (A) over 6 min at 25.0 ± 0.1 °C, at a flow rate of 0.5 mL/min and MS working in selected ion recording (SIR) mode (A—0.1% aqueous formic acid (FA) and B—0.1% FA in acetonitrile). The percentage of peptide remaining intact was calculated from peak areas of samples at t0 and after 6 h of incubation in serum (the % of remaining peptide = peak area after 6 h/peak area at t0). The mass-to-charge ratios selected for SIR mode were based on values obtained from full spectrum analysis of each peptide and are presented in Table 1.

Row | MIC, S. aureus ATCC 25923 [3] [µg/mL] | MIC, E. faecalis PCM 2673 [6] [µg/mL] | MIC, E. coli ATCC 25922 [9] [µg/mL] | MIC, P. aeruginosa ATCC 9027 [12] [µg/mL] | MIC, C. albicans ATCC 10231 [15] [µg/mL] | Compound | MBIC, S. aureus ATCC 25923 [1] [µg/mL] | MBEC, S. aureus ATCC 25923 [2] [µg/mL] | MBIC, E. faecalis PCM 2673 [4] [µg/mL] | MBEC, E. faecalis PCM 2673 [5] [µg/mL] | MBIC, E. coli ATCC 25922 [7] [µg/mL] | MBEC, E. coli ATCC 25922 [8] [µg/mL] | MBIC, P. aeruginosa ATCC 9027 [10] [µg/mL] | MBEC, P. aeruginosa ATCC 9027 [11] [µg/mL] | MBIC, C. albicans ATCC 10231 [13] [µg/mL] | MBEC, C. albicans ATCC 10231 [14] [µg/mL] | Percentage of hemolysis at 1 μg/mL ([16]; red cells of human, 1 h) [%] | Percentage of hemolysis at 2 μg/mL ([16]; red cells of human, 1 h) [%] | Percentage of hemolysis at 4 μg/mL ([16]; red cells of human, 1 h) [%] | Percentage of hemolysis at 8 μg/mL ([16]; red cells of human, 1 h) [%] | Percentage of hemolysis at 32 μg/mL ([16]; red cells of human, 1 h) [%] | also measured
1 | 512 (≈ 343 µM) | 128 (≈ 85.7 µM) | 128 (≈ 85.7 µM) | 512 (≈ 343 µM) | 128 (≈ 85.7 µM) | CC[C@H](C)[C@H](NC(=O)[C@H](CCCCN)NC(=O)[C@H](CCCCN)NC(=O)[C@@H](NC(=O)[C@@H](NC(=O)[C@H](CC(=O)O)NC(=O)[C@H](Cc1ccccc1)NC(=O)[C@H](CC(C)C)NC(=O)[C@H](C)N)[C@@H](C)CC)[C@@H](C)CC)C(=O)N[C@@H](C)C(=O)N[C@@H](CCC(=O)O)C(=O)N[C@@H](CO)C(=O)N[C@@H](Cc1ccccc1)C(N)=O [Peptide G1A] (H-ALFDIIKKIAESF-NH2) | 512 | 512 | 256 | > 512 | 128 | 256 | 256 | 512 | 4 | > 512 | 0.0 | 0.0 | 0.0 | 0.0 | 0.0 | Percentage of hemolysis at 16 μg/mL ([16]; red cells of human, 1 h, 16): 0.0%; Percentage of hemolysis at 64 μg/mL ([16]; red cells of human, 1 h): 0.0%; Percentage of hemolysis at 128 μg/mL ([16]; red cells of human, 1 h): 0.3%; Percentage of hemolysis at 256 μg/mL ([16]; red cells of human, 1 h): 4.2%; remaining at 6 h, 0.125 mg/mL [17]: 16%
2 | > 512 | 128 (≈ 89 µM) | 256 (≈ 178 µM) | 512 (≈ 356 µM) | 256 (≈ 178 µM) | CC[C@H](C)[C@H](NC(=O)[C@H](C)NC(=O)[C@H](CC(=O)O)NC(=O)[C@H](Cc1ccccc1)NC(=O)[C@H](CC(C)C)NC(=O)CN)C(=O)N[C@@H](CCCCN)C(=O)N[C@@H](CCCCN)C(=O)N[C@H](C(=O)N[C@@H](C)C(=O)N[C@@H](CCC(=O)O)C(=O)N[C@@H](CO)C(=O)N[C@@H](Cc1ccccc1)C(N)=O)[C@@H](C)CC [Peptide I5A] (H-GLFDAIKKIAESF-NH2) | > 512 | > 512 | 512 | > 512 | 512 | 512 | > 512 | > 512 | 4 | 512 | 0.2 | 0.3 | 0.2 | 0.0 | 0.0 | Percentage of hemolysis at 16 μg/mL ([16]; red cells of human, 1 h, 16): 0.0%; Percentage of hemolysis at 64 μg/mL ([16]; red cells of human, 1 h): 0.1%; Percentage of hemolysis at 128 μg/mL ([16]; red cells of human, 1 h): 0.0%; Percentage of hemolysis at 256 μg/mL ([16]; red cells of human, 1 h): 1.1%; remaining at 6 h, 0.125 mg/mL [17]: 71%

Row | Compound | MIC, S. aureus ATCC 25923 [3] [µg/mL] | MIC, E. faecalis PCM 2673 [6] [µg/mL] | MIC, E. coli ATCC 25922 [9] [µg/mL] | MIC, P. aeruginosa ATCC 9027 [12] [µg/mL] | MIC, C. albicans ATCC 10231 [15] [µg/mL] | MBIC, S. aureus ATCC 25923 [1] [µg/mL] | MBEC, S. aureus ATCC 25923 [2] [µg/mL] | MBIC, E. faecalis PCM 2673 [4] [µg/mL] | MBEC, E. faecalis PCM 2673 [5] [µg/mL] | MBIC, E. coli ATCC 25922 [7] [µg/mL] | MBEC, E. coli ATCC 25922 [8] [µg/mL] | MBIC, P. aeruginosa ATCC 9027 [10] [µg/mL] | MBEC, P. aeruginosa ATCC 9027 [11] [µg/mL] | MBIC, C. albicans ATCC 10231 [13] [µg/mL] | MBEC, C. albicans ATCC 10231 [14] [µg/mL] | Percentage of hemolysis at 1 μg/mL ([16]; red cells of human, 1 h) [%] | Percentage of hemolysis at 2 μg/mL ([16]; red cells of human, 1 h) [%] | Percentage of hemolysis at 4 μg/mL ([16]; red cells of human, 1 h) [%] | Percentage of hemolysis at 8 μg/mL ([16]; red cells of human, 1 h) [%] | Percentage of hemolysis at 32 μg/mL ([16]; red cells of human, 1 h) [%] | also measured
3 | CC[C@H](C)[C@H](NC(=O)[C@H](CCCCN)NC(=O)[C@H](CCCCN)NC(=O)[C@@H](NC(=O)[C@@H](NC(=O)[C@H](CC(=O)O)NC(=O)[C@H](Cc1ccccc1)NC(=O)[C@H](CC(C)C)NC(=O)CN)[C@@H](C)CC)[C@@H](C)CC)C(=O)N[C@@H](C)C(=O)N[C@@H](CCC(=O)O)C(=O)N[C@@H](CO)C(=O)N[C@@H](C)C(N)=O [Peptide F13A] (H-GLFDIIKKIAESA-NH2) | > 512 | 128 (≈ 91.2 µM) | 128 (≈ 91.2 µM) | > 512 | 512 (≈ 365 µM) | >512 | 128 | >512 | > 512 | >512 | 512 | >512 | > 512 | 8 | > 512 | 0.3 | 0.6 | 0.5 | 0.4 | 0.0 | Percentage of hemolysis at 16 μg/mL [16]: 0,0%; Hemolysis over the whole concentration range ([16]; 1–256 μg/mL, 4% human RBCs in PBS, 1 h, 37 °C): did not cause the lysis of RBCs; Percentage of hemolysis at 64 μg/mL ([16]; red cells of human, 1 h): 0.0%; Percentage of hemolysis at 128 μg/mL ([16]; red cells of human, 1 h): 0.0%; Percentage of hemolysis at 256 μg/mL ([16]; red cells of human, 1 h): 0.0%; remaining at 6 h, 0.125 mg/mL [17]: 54%
